Results reported in US10251902B2, “Pharmaceutical composition for treating or preventing neuropsychiatric disease, containing flavone-6-C-glucose derivatives as active ingredients” (priority 2013, dated 2019).

Columns and labels:
[1] = tested on: pentobarbital-induced sleep; assay: Sleep-inducing test (pentobarbital); assay type: in vivo, ICR mice; conditions: swertisin 10 mg/kg
Protocol: (§1) Six-week old ICR mice in about 26 g to 28 g (Orientbio Inc, Republic of Korea) were received water and feed without constraint and adapted for 5 days under an environment having about 23±1° C. of temperature, about 60±10% of humidity and 12-hour light/dark cycle (animal laboratory at College of Pharmacy, Kyung-Hee University), and then used for the experiment. Foods were blocked at 24 hours before the test.
The mice prepared in 1) were divided into […] (10 mice per each group) including the drug administration group 1, wherein swertisin was administered, and the controls 1 and 2. Swertisin prepared in Example 3 was dissolved in 10% Tween 80 (Polyoxyethylene sorbitan monooleate: Sigma, U.S.A.) and administered to the drug administration group 1 in an amount of 10 mg/kg. Meanwhile, 0.15 mL of 10% Tween 80 was administered to the control 1.
After 1 hour of administration, pentobarbital was dissolved in a saline solution and intraperitoneally administered to the mouse in an amount of 60 mg/kg. The mouse was located in the cage. At this time, straw was laid in the cage only enough to cover the floor, and only one mouse was located in the cage for observation. […]

[2] = tested on: model of memory impairment induced by scopolamine; assay: Y-maze test in scopolamine-treated mice; assay type: in vivo, ICR mice; conditions: scopolamine 1 mg/Kg i.p.; for Alternation Behavior (%): Table 6, 8 minutes in Y-maze; for Total Entry: Table 7, total number of entry to each branch, 8 minutes
Protocol: An experiment was conducted to confirm effects of swertisin or isoorientin, and extracts of Swertia pseudochinensis or Swertia japonica containing the same prepared in Examples 1 to 3 in treating dementia by using a model of memory impairment induced by scopolamine. Detailed method follows.
as §1, with “experiment.” for “experiment. Foods were blocked at 24 hours before the test.”
A Y-maze was prepared for the experiment. The Y-maze has 3 branches and each branch has 42 cm of length, 3 cm of width and 12 cm of height. Angle between any two arms is 120 degrees and the arms were made of black polyvinyl resin.
The mice prepared in the above 1) were separated into 5 groups (10 mice per each group) comprised of drug administration groups 1 and 2, and controls 1 to 3.
The swertisin prepared in Example 3 (8 mg) was dissolved in 4 mL of 10% Tween 80 (Polyoxyethylene sorbitan monooleate: Sigma, U.S.A.), and administered to the drug administration groups 1 and 2 in an amounts of 5 mg/Kg and 10 mg/Kg respectively. Meanwhile, 5 mg/Kg of donepezil was administered to the control 1, and 0.15 mL of 10% Tween 80 was administered to the controls 2 and 3 respectively.
About 30 minutes later, 1 mg/Kg of scopolamine, which was dissolved in distilled water, was intraperitoneally administered to the drug administration groups 1 and 2, and controls 1 and 2 (Ebert, U. et al., Eur. J. Clin. Invest., 28, pp. 944-949, 1998), and 0.9% of saline solution was intraperitoneally administered to the control 3.
After 30 minutes, mice of the drug administration groups 1 and 2, and the controls 1-3 were carefully located on each branches of the Y-maze, which was divided as A, B and C respectively, and let the mice move freely for 8 minutes, and then recorded branches where mice have entered. The entrance was recorded when the entire body (i.e. including the tail) has completely entered. It was also recorded when the mice entered again into the branch that the mice have entered before.
One point was scored when the mouse sequentially entered into 3 different branches (actual alternation). Alternation behavior is defined as sequentially entering into every 3 branch, and it was converted into % via Equation 1 below (Sarter, M. et al., Psychopharmacology., 94, pp. 491-495, […]).

COc1cc2oc(-c3ccc(O)cc3)cc(=O)c2c(O)c1[C@@H]1O[C@H](CO)[C@@H](O)[C@H](O)[C@H]1O [swertisin]
total sleep time compared to the control 1, in words ([1]; pentobarbital 60 mg/kg i.p.): remarkably decreased
Total Sleep Time ([1]; pentobarbital 60 mg/kg i.p. 1 hour after administration): 94.47 ± 21.83 min
Alternation Behavior (%) ([2]; swertisin 5 mg/kg): 56.22 ± 12.29%
Alternation Behavior (%) ([2]; swertisin 10 mg/kg): 59.36 ± 5.653%
Total Entry ([2]; swertisin 5 mg/kg): 27.10 ± 7.795
Total Entry ([2]; swertisin 10 mg/kg): 28.88 ± 4.155
